Key:
[1] = system: Rabbit Psoas myofibrils (skeletal myosin ATPase); test: Myofibril ATPase assay, rabbit psoas (skeletal) myofibrils; assay type: biochemical; settings: rabbit psoas myofibrils
Outline: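 Rabbit psoas skeletal myofibrils in PIPES/CaCl2/EGTA pCa buffer, pH 7.0. ATPase rate followed by PK-LDH-coupled NADH loss at 340 nm, read every 1.5–2 min for 75 min. Slopes normalized to vehicle (100%) and fitted to a 4-parameter logistic; values are Y75 (25% inhibition) or Y125 (25% activation) concentrations.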

[2] = system: Porcine atria myofibrils (atrial myosin ATPase); test: Myofibril ATPase assay, porcine atria myofibrils; assay type: biochemical; settings: porcine atria myofibrils
Outline: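 Coupled PK-LDH reaction links ADP from myosin ATPase to NADH loss, read at 340 nm every 1.5-2 min for 75 min. Slopes (mAU/min) normalized to vehicle-only wells (100%) and fit to a 4-parameter logistic; Y75 is the concentration cutting activity by 25%, Y125 is reported for activators.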

[3] = target: T1, Porcine ventricle myofibrils (ventricular myosin ATPase) (Sus scrofa, UniProt P79293); test: Myofibril ATPase assay, porcine ventricle myofibrils; assay type: biochemical, porcine (Yucatan minipigs); settings: porcine ventricle myofibrils
T1 construct: Myofibrils from porcine cardiac muscle was isolated from the left ventricle of Yucatan minipigs; tissue Exemplar Genetics; host or cells: left ventricle of Yucatan minipigs, myofibrils prepared in house
T1 sequence (P79293 whole entry): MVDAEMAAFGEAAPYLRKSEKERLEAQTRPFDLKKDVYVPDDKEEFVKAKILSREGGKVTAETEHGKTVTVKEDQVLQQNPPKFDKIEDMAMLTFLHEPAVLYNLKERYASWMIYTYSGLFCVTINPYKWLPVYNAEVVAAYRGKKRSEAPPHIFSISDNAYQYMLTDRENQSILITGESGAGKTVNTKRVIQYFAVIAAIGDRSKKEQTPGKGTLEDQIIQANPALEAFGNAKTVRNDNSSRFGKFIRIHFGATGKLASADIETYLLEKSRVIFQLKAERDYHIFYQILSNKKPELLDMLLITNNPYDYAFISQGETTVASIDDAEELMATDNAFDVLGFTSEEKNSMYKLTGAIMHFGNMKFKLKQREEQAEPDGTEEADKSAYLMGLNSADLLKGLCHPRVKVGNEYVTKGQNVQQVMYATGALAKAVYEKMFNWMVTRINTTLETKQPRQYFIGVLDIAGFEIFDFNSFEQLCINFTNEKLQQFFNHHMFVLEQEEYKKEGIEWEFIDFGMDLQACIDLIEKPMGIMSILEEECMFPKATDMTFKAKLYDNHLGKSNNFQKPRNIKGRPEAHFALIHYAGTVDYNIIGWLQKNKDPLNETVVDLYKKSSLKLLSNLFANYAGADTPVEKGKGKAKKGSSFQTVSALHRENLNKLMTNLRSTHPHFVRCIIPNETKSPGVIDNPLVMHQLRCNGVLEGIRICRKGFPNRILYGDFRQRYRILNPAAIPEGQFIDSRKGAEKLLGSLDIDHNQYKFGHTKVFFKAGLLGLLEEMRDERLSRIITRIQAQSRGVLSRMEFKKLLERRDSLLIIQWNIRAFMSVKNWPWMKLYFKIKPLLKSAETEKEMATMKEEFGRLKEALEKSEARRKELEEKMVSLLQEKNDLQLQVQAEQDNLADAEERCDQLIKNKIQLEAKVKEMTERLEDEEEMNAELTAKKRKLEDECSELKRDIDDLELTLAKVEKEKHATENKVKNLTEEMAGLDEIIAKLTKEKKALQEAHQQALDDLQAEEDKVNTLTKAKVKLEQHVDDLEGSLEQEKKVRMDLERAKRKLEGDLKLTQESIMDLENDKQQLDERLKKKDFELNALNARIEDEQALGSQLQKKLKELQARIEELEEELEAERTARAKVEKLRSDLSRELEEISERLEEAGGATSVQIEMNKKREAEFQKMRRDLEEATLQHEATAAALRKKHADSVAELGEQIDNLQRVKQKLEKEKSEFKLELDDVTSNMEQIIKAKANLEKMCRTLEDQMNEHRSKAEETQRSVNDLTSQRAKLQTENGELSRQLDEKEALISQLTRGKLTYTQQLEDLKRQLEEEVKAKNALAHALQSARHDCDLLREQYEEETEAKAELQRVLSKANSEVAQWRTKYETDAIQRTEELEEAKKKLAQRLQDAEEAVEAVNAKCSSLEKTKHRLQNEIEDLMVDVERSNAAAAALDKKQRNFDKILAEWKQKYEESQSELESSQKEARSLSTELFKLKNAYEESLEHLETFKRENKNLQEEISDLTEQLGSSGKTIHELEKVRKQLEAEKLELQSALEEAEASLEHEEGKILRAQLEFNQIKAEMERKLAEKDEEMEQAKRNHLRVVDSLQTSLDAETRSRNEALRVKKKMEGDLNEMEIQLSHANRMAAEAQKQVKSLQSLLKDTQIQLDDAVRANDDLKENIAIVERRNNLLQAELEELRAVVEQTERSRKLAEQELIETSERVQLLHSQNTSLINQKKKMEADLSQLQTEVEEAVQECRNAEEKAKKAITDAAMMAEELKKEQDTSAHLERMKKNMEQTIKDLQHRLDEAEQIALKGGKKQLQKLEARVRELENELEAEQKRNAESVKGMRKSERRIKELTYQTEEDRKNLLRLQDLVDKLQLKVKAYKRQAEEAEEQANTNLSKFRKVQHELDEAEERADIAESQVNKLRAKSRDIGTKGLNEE
Outline: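 Test compounds acted on myofibrils isolated from the left ventricle of Yucatan minipigs. ADP formation was coupled via pyruvate kinase/lactate dehydrogenase to NADH oxidation, monitored kinetically at 340 nm over 75 min. Rates relative to vehicle were fitted with a 4-parameter logistic model, reported as Y75 (25% inhibition) or Y125 (activation) concentrations.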

[4] = Y75 value (75% activity relative to no compound)
[5] = ‡ Y125 value, not a Y75 value (125% activity relative to no compound)

Row | SMILES | Skeletal EC25 ([1]; Y75 value (no ‡ mark)) [µM] | Atrial EC25 ([2]; Y75 value (no ‡ mark)) [nM] | Ventricular EC25 ([3]; Y75 value (no ‡ mark)) [µM] | Skeletal EC25 ([1]; Y75 value) [µM] | Atrial EC25 [2, 4] [nM] | Ventricular EC25 ([3]; Y75 value) [µM] | Ventricular EC25 [3, 5] | Skeletal EC25 [1, 5]
1 | Cc1c(CC(=O)N[C@@H](C)c2ccc(C#N)cn2)c(=O)[nH]c2ccc(F)cc12 [compound 1128] | 0.09 | 520 | 0.70 |  |  |  |  | 
2 | O=C(Cc1cc2c(F)c(F)ccc2[nH]c1=O)N1CC2CC1c1ccccc12 (stereo not drawn) [compound 4504] | 0.30 | 920 | 0.47 |  |  |  |  | 
3 | C[C@@H](NC(=O)Cc1c(C#N)c2cc(F)c(F)cc2[nH]c1=O)c1ccc(C#N)cn1 (single isomer, unassigned) [compound 2047] | 30.48 | 25330 | 47.78 |  |  |  |  | 
4 | Cc1nccc2[nH]c(=O)c(CC(=O)N[C@H](C)c3ccc(C#N)cc3F)c(C)c12 (single isomer, unassigned) [compound 255] |  |  |  | 0.71 | 1300 | 1.77 |  | 
5 | Cc1c(CC(=O)N[C@H](C)c2ncc(C#N)cc2F)c(=O)[nH]c2cccc(F)c12 [compound 51] | 0.06 | 230 | 0.40 |  |  |  |  | 
6 | Cc1nc(C#N)cnc1[C@@H](C)NC(=O)Cc1c(C)c2c(C#N)c(F)ccc2[nH]c1=O (single isomer, unassigned) [compound 1] | 0.11 | 70 | 0.14 |  |  |  |  | 
7 | Cc1c(C(C)C(=O)N[C@@H](C)c2ccc(F)cc2F)c(=O)[nH]c2ccnc(I)c12 (stereo partly drawn) [compound 349] |  |  |  | 0.13 | 760 | 5.41 |  | 
8 | CCNc1nccc2[nH]c(=O)c(CC(=O)N[C@@H](C)c3ccc(F)cc3F)c(C)c12 [compound 351] |  |  |  | 0.06 | 140 | 0.97 |  | 
9 | Cc1c(CC(=O)N[C@H](C)c2ccc(C#N)cn2)c(=O)[nH]c2cccc(C#N)c12 [compound 1076] | 0.35 | 1890 | 1.49 |  |  |  |  | 
10 | Cc1c(CC(=O)N[C@@H](CO)c2ccc(F)cc2F)c(=O)[nH]c2ccnc(C(F)(F)F)c12 [compound 232] |  |  |  | 0.02 | 470 | 2.74 |  | 
11 | Cc1c(CC(=O)N[C@H](C)c2ncc(C#N)cc2F)c(=O)[nH]c2cc(F)ccc12 [compound 1078] | 2.27 | 2570 | 2.05 |  |  |  |  | 
12 | Cc1c(CC(=O)N[C@@H](C)c2ncc(C#N)cc2F)c(=O)[nH]c2ccc(C(F)(F)F)nc12 [compound 147] |  |  |  | 0.06 | 20 | 0.12 |  | 
13 | C[C@H](NC(=O)[C@@H](C)c1cc2cc(F)ccc2[nH]c1=O)c1ccc(F)cc1F (single isomer, unassigned) [compound 2608] | 100.00 | 100000 |  |  |  |  | 44.26‡ μM | 
14 | Cc1c(O)ccc2[nH]c(=O)c(CC(=O)N[C@@H](C)c3ncc(F)cc3F)cc12 (single isomer, unassigned) [compound 78] | 6.60 | 7080 | 100.00 |  |  |  |  | 
15 | Cc1ccc2[nH]c(=O)c(CC(=O)N[C@@H](C)c3ncc(C#N)cc3F)c(C)c2n1 [compound 469] |  |  |  | 0.55 | 150 | 1.66 |  | 
16 | Cc1nccc2[nH]c(=O)c([C@H](C)C(=O)N[C@@H](C)c3ccc(F)cc3F)c(C(F)(F)F)c12 (single isomer, unassigned) [compound 413] |  |  |  | 10.76 | 20630 | 100.00 |  | 
17 | Cc1c(F)ccc2[nH]c(=O)c(C(F)(F)C(=O)N[C@@H](C)c3ncc(C#N)cn3)c(C#N)c12 (single isomer, unassigned) [compound 2512] |  | 1530 | 33.47 |  |  |  |  | 100.00‡ μM
18 | Cc1c([C@@H](C)C(=O)N[C@@H](C)c2ccc(F)cc2F)c(=O)[nH]c2ccc(F)c(F)c12 (single isomer, unassigned) [compound 108] | 0.05 | 40 | 0.28 |  |  |  |  | 
19 | Cc1nccc2[nH]c(=O)c(CC(=O)N[C@H](C)c3ccc(C#N)cc3F)c(C#N)c12 [compound 153] |  |  |  | 3.09 | 19400 | 100.00 |  | 
20 | C[C@@H](NC(=O)Cc1c(C2CC2)c2cnccc2[nH]c1=O)c1ncc(C#N)cc1F [compound 142] |  |  |  | 100.00 | 100000 | 100.00 |  | 
21 | Cc1c(CC(=O)N[C@H](C)c2ncc(C#N)cn2)c(=O)[nH]c2ccc(F)cc12 [compound 1070] | 2.50 | 220 | 1.72 |  |  |  |  | 
22 | C[C@H](NC(=O)[C@@H](C)c1c(C(F)(F)F)c2cc(F)ccc2[nH]c1=O)c1ccc(F)cc1F (single isomer, unassigned) [compound 99] | 0.09 | 130 | 100.00 |  |  |  |  | 

Results, then the compound that gave them:

Row | Skeletal EC25 ([1]; Y75 value (no ‡ mark)) [µM] | Atrial EC25 ([2]; Y75 value (no ‡ mark)) [nM] | Ventricular EC25 ([3]; Y75 value (no ‡ mark)) [µM] | Skeletal EC25 ([1]; Y75 value) [µM] | Atrial EC25 [2, 4] [nM] | Ventricular EC25 ([3]; Y75 value) [µM] | Ventricular EC25 [3, 5] | Skeletal EC25 [1, 5] | SMILES
23 | 100.00 | 100000 | 100.00 |  |  |  |  |  | C[C@H](NC(=O)[C@H](C)c1cc2c(Cl)c(O)ccc2[nH]c1=O)c1ccc(F)cc1F (single isomer, unassigned) [compound 86]
24 |  |  |  | 0.61 | 960 | 6.56 |  |  | C[C@H](NC(=O)Cc1c(C2CC2)c2cnccc2[nH]c1=O)c1ncc(C#N)cc1F [compound 143]
25 |  |  |  | 0.02 | 100 | 0.38 |  |  | Cc1nccc2[nH]c(=O)c(CC(=O)N[C@H]3CCc4cc(F)cc(F)c43)c(C)c12 [compound 406]
26 | 0.01 | 40 | 0.13 |  |  |  |  |  | Cc1c(CC(=O)N[C@@H](C)c2ccc(F)cc2F)c(=O)[nH]c2ccc(F)c(Br)c12 [compound 109]
27 | 0.00 | 20 | 0.02 |  |  |  |  |  | Cc1c(CC(=O)N[C@@H](C)c2ncc(C#N)cc2F)c(=O)[nH]c2ccc(F)c(C(F)(F)F)c12 [compound 22]
28 | 0.04 | 70 | 0.17 |  |  |  |  |  | Cc1c(C(F)(F)C(=O)N[C@@H](C)c2ncc(C#N)cc2F)c(=O)[nH]c2ccc(F)cc12 (single isomer, unassigned) [compound 2607]
29 |  |  |  | 100.00 | 100000 | 100.00 |  |  | Cc1nccc2[nH]c(=O)c(CC(=O)N[C@H](CO)c3ccccn3)c(C)c12 (single isomer, unassigned) [compound 316]
30 |  |  |  | 100.00 | 100000 | 100.00 |  |  | COc1ccccc1[C@H](C)NC(=O)Cc1c(C)c2c(C)nccc2[nH]c1=O (single isomer, unassigned) [compound 319]
31 |  |  |  | 0.11 | 300 | 2.97 |  |  | Cc1nccc2[nH]c(=O)c([C@@H](C)C(=O)N[C@@H](C)c3ccc(C#N)cc3F)c(C)c12 (single isomer, unassigned) [compound 195]
32 | 0.03 | 90 | 0.20 |  |  |  |  |  | Cc1c(C(F)(F)C(=O)N[C@@H](C)c2ncc(C#N)cc2F)c(=O)[nH]c2cccc(C#N)c12 (single isomer, unassigned) [compound 2502]
